From patent US10774046B2, “Inhibitors for the treatment of cancer and related methods” (UNIVERSITY OF LOUISVILLE RESEARCH FOUNDATION, INC., priority 2017, dated 2020)

Test system: H460 cells
Assay: cell cycle analysis by flow cytometry
Format: cell-based, human
Method: To measure apoptosis, cells were stained with annexin V and propidium iodide and examined as previously described. For example, H460 cells were exposed to increasing concentrations of the PFKFB4 inhibitor (MPN-2), the PFKFB3 inhibitor PFK15 (Tocris) or both and viable cells were counted at 24, 48 and 72 hours. DMSO used as vehicle. For cell cycle experiments, cells were detached, washed with cold PBS and fixed in 70% ethanol (4° C., 30 minutes). The cells then were pelleted by centrifugation, resuspended in PBS containing PI and RNase A, incubated at 37° C. in the dark for 30 minutes and analyzed by flow cytometry (BD FACSCalibur). Data were analyzed using FlowJo software (TREE STAR Inc.). Results were calculated as the mean±SD of three experiments. The effects (Fa values) of the series of concentrations of MPN-2 and PFK-15 were examined individually and in combination at a constant ratio of 1:1.

Q: Which results are given for `COc1cccc2c(NCCCCCO[N+](=O)[O-])ccnc12` [5MPN, 5-[(8-methoxyquinolin-4-yl)amino]pentyl nitrate]?
A: cell cycle distribution (H460, 10 μM 5MPN): G1 arrest; effect of overexpression of PFKFB4 on G1 arrest (H460 transfected with PFKFB4, 10 μM 5MPN, 24 hours): reversed
